# Experimental data published in US20230159891A1, “T CELL PROGENITOR PRODUCTION METHOD” (Kyoto University, priority 2020, published 2023).
# Key:
# [1] = test system: Hemogenic endothelial cells (HECs) induced from iPS cells; test: Differentiation culture of iPS-derived hemogenic endothelial cells into CD34+/CD7+ T cell progenitors (Example 1); assay type: cell-based, human
# Method: The cell population containing hemogenic endothelial cells (HECs) for use was a floating cell population obtained by differentiating iPS cells (Ff-I01s04: derived from peripheral blood mononuclear cells of a healthy individual) provided from the Center for iPS Cell Research and Application, Kyoto University, according to known methods (e.g., the methods disclosed in Cell Reports 2 (2012) 1722-1735, or WO2017/221975). Specifically, Ff-I01s04 was seeded at 1×10^6 cells/well in an ultra-low-attachment 6-well plate (Day 0). The cells were cultured under hypoxic conditions (5% 02) for 4 days in EB medium (StemPro-34 supplemented with 10 μg/ml human insulin, 5.5 μg/ml human transferrin, 5 ng/ml sodium selenite, 2 mM L-glutamine, […] α-monothioglycerol, and 50 μg/ml ascorbic acid 2-phosphate) supplemented with 50 ng/ml BMP4, 50 ng/ml bFGF, 50 ng/ml VEGF, and 2 μM SB431542 (Day 4). Subsequently, culture was further performed in a medium supplemented with 50 ng/ml bFGF, 50 ng/ml VEGF, and 50 ng/ml SCF for 4 days (Day 8), thereby obtaining a cell population containing HECs. The floating cell population containing HECs were stained with the following antibody set. […] On day 11 after the start of culture, cells were collected with pipetting, and the cell number was measured. […]
# [2] = test system: Hemogenic endothelial cells (HECs) derived from iPS cells; test: Importance of SR1 and IL-3 in production of T cell progenitor (Example 3); assay type: cell-based, human; settings: 12 days culture
# Method: Hemogenic endothelial cells (HECs) derived from iPS cells prepared in the same manner as in Example 1 were sorted by BD FACSAria® Fusion and re-suspended in a StemSpan SFEM II medium, followed by seeding the cells into a culture vessel (6-well plate) coated with RN and DLL4-Fc (225,000/6 wells). […] Halfway through the culture, on day 4 after the start of culture, 500 μl of the medium described above was added. On day 7 after the start of culture, a half amount of the medium was replaced. On day 12 after the start of culture, cells were collected with pipetting, and the cell number was measured. The cells were stained with the antibodies shown in Table 2 and measured with BD FACSAria™ Fusion.
# CD34^+ cells = settings: NPL 5 (Boitano et al.); cited from earlier work
structure (smiles),measurement,setting,value
"CC(C)n1cnc2c(NCCc3ccc(O)cc3)nc(-c3csc4ccccc34)nc21 [SR1, 4-(2-((2-(benzo[b]thiophen-3-yl)-9-isopropyl-9H-purin-6-yl)amino)ethyl)phenol]",cell growth,"[1]; 10 days of culture, 1 nM SR1 with SCF, Flt3L, TPO, IL-7, IL-6, IL-3 in StemSpan SFEM II on RetroNectin/DLL4-Fc coated plate",about 150 fold
same,proportion of cells that were proT (CD34+/CD7+) cells,"[1]; same culture as E1, flow cytometry after culture",about 25%
same,expression level of CD34,"[2]; flow cytometry, control vs -SR1 condition, FIG. 4",plays an important role in maintaining the expression level of CD34
same,cell proliferation (cell number) when the factor is excluded from the additives,"[2]; control: 1 nM SR1, 10 ng/ml IL-3 plus SCF, Flt3L, TPO, IL-7, IL-6, FIG. 3",reduced
same,expansion of CD34+ cells,CD34^+ cells,promoted expansion
